Source: patent US5244897A, “Glycyl-p-amino-pyridine for the treatment of senile dementia states” (priority 1989, dated 1993)

Legend:
[1] = acute convulsant activity after oral administration (Litchfield and Wilcoxon); format: in vivo; settings: Swiss male mice; for TD50: mouse, in vivo, read-out: CD50 (Convulsant Doses 50)
[2] = acute toxicity after oral administration (Litchfield and Wilcoxon); format: in vivo; settings: Swiss mice; for LD50: mouse, in vivo
[3] = toxicity after repeated oral administration, 30 days, preliminary study; format: in vivo, male and female Sprague Dawley rat; settings: 6 mg/kg oral, 30 consecutive days, rat
Experimental: The toxicity of MR-3066 after repeated administration was evaluated in male and female Sprague Dawley rat after oral administration of the drug (6 mg/kg) for 30 consecutive days.

[4] = mean blood pressure (reported with the transcallosal evoked potential study); format: in vivo, rats; settings: for mean blood pressure: MR-3066 2 mg/kg i.v., physostigmine 0.1 mg/kg i.v.
Experimental: (§1) Electric stimulus was given to the callosum of urethane anesthetized rats, and transcallosal evoked potential from the opposite side cerebral cortex was measured.
(§2) The effects of the compounds on the transcallosal evoked potential were studied in rats.

[5] = properties stated in the general summary; format: in vivo; settings: general statement
[6] = test system: retention of passive avoidance response; assay: learning behavior in normal mice (passive avoidance response); format: in vivo, male mice; settings: n=20
Experimental: Male mice (body weight ca 20 grams) were used. The test apparatus was a box with a dark compartment and an illuminated one.
The animal was placed in the illuminated compartment, foot-shock was given immediately after the mouse moved in the dark compartement (acquisition trial).
MR-3066 was intraperitoneally administered immediately after the acquisition trial.
The test trial was carried out 24 h following the acquisition trial and the latency time to enter the dark compartment was recorded.
Anti-amnesic activity was calculated according to the following formula:
of control = (the mean latency time of test compound treated mice/the mea
latency time of vehicle treated mice) 100.

[7] = test system: scopolamine-induced amnesia; assay: scopolamine-induced amnesia (passive avoidance); format: in vivo, mice; settings: for minimal effective dose: Mus musculus, ip, read-out: Active dose (significantly prolonged the latency)
Experimental: Test apparatus, mice and passive avoidance training (acquisition trial) were as described in the previous sections (4.2-4.3). The compounds were intraperitoneally administered 30 min. before the acquisition trial.
Amnesia was induced by scolopolamine (1 mg/kg s.c.) given 20 min. prior to the acquisition trial; the test trial was performed after 24 hours.
The animals were put in the illuminated compartment and latency time to enter the dark compartment was recorded.
(§3) Anti-amnesic activity was calculated according to the following formula.
(§4) % of control = (the mean latency time of test compound treated mice/the
(§5) mean latency time of vehicle treated mice) × 100.

[8] = test system: electroconvulsive shock (ECS) induced amnesia; assay: electroconvulsive shock (ECS) induced amnesia (passive avoidance); format: in vivo, male mice; settings: n=20; for minimal effective dose: Mus musculus, ip, read-out: Active dose (significantly prolonged the latency)
Experimental: Male mice (body weight 23-26 grams) were used.
Test apparatus and passive avoidance training (acquisition trial) were as described in the previous section.
Immediately after acquisition trial, amnesia was induced by electroconsulsive shock (ECS).
Test compounds were administered intraperitoneally soon afterwards the exposure to ECS.
The test trial was performed 24 h after the acquisition trial: the animals were put in the illuminated compartment an the latency time to enter the unlighted compartment was recorded
as §3, §4, §5

[9] = test system: acetylcholine release from the rat's cerebral cortex; assay: acetylcholine release in vivo, acute treatment; settings: 5.6 mg/kg i.p., anesthetized rats, n=5
Experimental: Effect on acetylcholine release from the rat's cerebral cortex "in vivo"
In this study the Acetylcholine release from the cerebral cortex was investigated in anesthetized rats (n=5) at different times before and after i.p. administration of MR-3066 at a dose of 5.6 mg/kg.

[10] = test system: spontaneous EEG (motor cortex, hippocampus, nucleus amygdalae); assay: spontaneous EEG; format: in vivo; settings: 0.1 mg/kg i.v., rabbits
Description: Electrodes were chronically implanted in the motor cortex, the hippocampus and the nucleus amygdalae of rabbits (n=4).
The effects of compounds on spontaneous EEG were studied in the animals.

[11] = test system: transcallosal evoked potential from the opposite side cerebral cortex; assay: transcallosal evoked potential; format: in vivo, urethane anesthetized rats; settings: 0.1 mg/kg i.v., rats
Experimental: as §1, §2

[12] = ECS amnesia, 1 mg/kg i.p., MR-3066 ** P < 0.01 vs control
[13] = ECS amnesia, 2,5 mg/kg i.p., MR-3066 * P < 0.05, THA ** P < 0.01 vs control

## Nc1ccncc1 [4-aminopyridine, reference compound]
[1]
  TD50: 5 mg/kg
[2]
  LD50: 12 mg/kg

## NCC(=O)Nc1ccncc1 [MR-3066, glycyl-p-amino-pyridine monoacetate]
[3]
  toxic phenomena after repeated administration: no toxic phenomenon except for a slight decrease in body weight, increase in the female accompanied by a reduction in food consumption
[4]
  mean blood pressure: raised the mean blood pressure
[1]
  convulsant activity versus 4-aminopyridine: less convulsant than 4-aminopyridine
  TD50: 19 mg/kg
[2]
  acute toxicity versus 4-aminopyridine: toxicity lower than 4-aminopiridine
  LD50: 29 mg/kg
[5]
  Parkinson-like effect: without nevertheless showing Parkinson-like effect
[6]; 1 mg/kg i.p.
  Mean latency (% of control): 120.5 % of control
[6]; 2.5 mg/kg i.p.
  Mean latency (% of control): 118.8 % of control
[6]; 5 mg/kg i.p., ** P < 0.01 vs control
  Mean latency (% of control): 136.1 % of control
[6]; Mus musculus, ip, passive avoidance, normal mice, read-out: Active dose (significantly prolonged the latency)
  minimal effective dose: 5 mg/kg
[7]; scopolamine amnesia
  minimal effective dose: 1 mg/kg
[7]; scopolamine amnesia, 0,5 mg/kg i.p.
  Anti-amnesic activity (% of control): 157,6 % of control
[7]; scopolamine amnesia, 1 mg/kg i.p., ** P < 0.01 vs controls
  Anti-amnesic activity (% of control): 188,1 % of control
[7]; scopolamine amnesia, 5 mg/kg i.p.
  Anti-amnesic activity (% of control): 159,5 % of control
[7]; scopolamine amnesia, 2,5 mg/kg i.p.
  Anti-amnesic activity (% of control): 145,2 % of control
[8]; ECS amnesia, 0,1 mg/kg i.p.
  Anti-amnesic activity (% of control): 148,2 % of control
[8]; ECS amnesia, 0,5 mg/kg i.p.
  Anti-amnesic activity (% of control): 121,6 % of control
[8]; ECS amnesia, 0,25 mg/kg i.p.
  Anti-amnesic activity (% of control): 147,8 % of control
[8]; [12]
  Anti-amnesic activity (% of control): 189,6 % of control
[8]; ECS amnesia, 5 mg/kg i.p.
  Anti-amnesic activity (% of control): 148 % of control
[8]; [13]
  Anti-amnesic activity (% of control): 165,5 % of control
[9]
  time of peak of Ach release: 45 '

## CNC(=O)Oc1ccc2c(c1)[C@]1(C)CCN(C)[C@@H]1N2C [Physostigmine]
[4]
  mean blood pressure: raised the mean blood pressure
[4]; physostigmine 0.1 mg/kg i.v. vs MR-3066 2 mg/kg i.v.
  mean blood pressure effect versus MR-3066: much more marked than MR-3066
[7]; scopolamine amnesia
  minimal effective dose: 0.1 mg/kg
  Active dose (significantly prolonged the latency): 0,1 mg/kg i.p.
[7]; scopolamine amnesia, 0,1 mg/kg i.p., * P < 0.05
  Anti-amnesic activity (% of control): 155,5 % of control
[7]; scopolamine amnesia, 0,05 mg/kg i.p.
  Anti-amnesic activity (% of control): 134,5 % of control
[7]; scopolamine amnesia, 0,025 mg/kg i.p.
  Anti-amnesic activity (% of control): 119,5 % of control
[8]; ECS amnesia, 0,05 mg/kg i.p., * P < 0.05
  Anti-amnesic activity (% of control): 165,6 % of control
[8]; ECS amnesia, 0,025 mg/kg i.p., * P < 0.05
  Anti-amnesic activity (% of control): 172,9 % of control
[8]; ECS amnesia, physostigmine 0,1 mg/kg i.p.
  Anti-amnesic activity (% of control): 148 % of control
[8]; ECS amnesia
  minimal effective dose: 0.025 to 0.05 mg/kg
[10]
  onset of the EEG effects: immediately after the administration
[11]
  amplitude of negative wave of transcallosal evoked potential: increased the amplitude of negative wave

## Nc1c2c(nc3ccccc13)CCCC2 [THA]
[8]; ECS amnesia, 0,5 mg/kg i.p.
  Anti-amnesic activity (% of control): 72,2 % of control
[8]; [12]
  Anti-amnesic activity (% of control): 114,4 % of control
[8]; [13]
  Anti-amnesic activity (% of control): 184,5 % of control
[8]; ECS amnesia
  Active dose (significantly prolonged the latency): 2.5 mg/kg i.p.
  minimal effective dose: 2.5 mg/kg
